Results on 31 compounds are retold here after PMC6271009, “Design and Synthesis of Thiazolo[5,4-f]quinazolines as DYRK1A Inhibitors, Part II” (Molecules, 2014).

One data set deals with T1, DYRK1A (Homo sapiens, UniProt Q13627).
T1 construct: Purified recombinant kinase was incubated with serial 3-fold dilutions of test compounds; purchased Reaction Biology Corporation
Kind of data set: DYRK1A kinase assay, Reaction Biology Corporation HotSpot technology (33P ATP). The class given is biochemical. The note with it: for IC50: purified recombinant kinase, 10 µM ATP, 120 min, room temperature.

The target in another data set is T2, DYRK1B (Homo sapiens, UniProt Q9Y463).
T2 construct: Purified recombinant kinase was incubated with serial 3-fold dilutions of test compounds; purchased Reaction Biology Corporation
Kind of data set: DYRK1B kinase assay, Reaction Biology Corporation HotSpot technology (33P ATP). Conditions: purified recombinant kinase, 10 µM ATP, 120 min, room temperature. The class given is biochemical.

The test system of data set [1] is patient-derived ovarian cancer ascites spheroids. Conditions: cited from earlier work.
The test system of a further data set is Panc1 xenograft. Conditions: cited from earlier work.
Data set [2] has as its system B- and T-ALL cell lines and primary human pediatric ALL samples. Also on record: method as in doi:10.1182/blood-2013-06-507368. The note with it: cited from earlier work.

Structures are written as SMILES.

T2 sequence (Q9Y463 whole entry): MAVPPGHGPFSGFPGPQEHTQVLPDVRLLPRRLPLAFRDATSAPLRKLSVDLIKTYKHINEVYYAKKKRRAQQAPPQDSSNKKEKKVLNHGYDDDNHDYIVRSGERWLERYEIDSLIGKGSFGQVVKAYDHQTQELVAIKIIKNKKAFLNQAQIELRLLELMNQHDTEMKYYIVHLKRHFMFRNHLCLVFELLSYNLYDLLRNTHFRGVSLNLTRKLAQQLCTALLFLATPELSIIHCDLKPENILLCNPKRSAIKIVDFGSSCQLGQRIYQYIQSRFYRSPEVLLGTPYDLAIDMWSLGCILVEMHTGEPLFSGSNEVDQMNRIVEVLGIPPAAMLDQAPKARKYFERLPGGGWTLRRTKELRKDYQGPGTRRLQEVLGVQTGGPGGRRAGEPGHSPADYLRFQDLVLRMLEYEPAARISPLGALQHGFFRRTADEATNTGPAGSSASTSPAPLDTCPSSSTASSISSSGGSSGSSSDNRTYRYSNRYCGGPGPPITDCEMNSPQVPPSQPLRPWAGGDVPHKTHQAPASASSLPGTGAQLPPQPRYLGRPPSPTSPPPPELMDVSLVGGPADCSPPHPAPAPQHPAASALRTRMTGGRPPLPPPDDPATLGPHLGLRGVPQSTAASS

Consider `COC(=N)c1nc2ccc3ncnc(Nc4ccc(OC)cc4)c3c2s1` [Compound 7a, Methyl 9-(4-methoxyphenylamino)thiazolo[5,4-f]quinazoline-2-carbimidate], for which the IC50 was 13.1 nM on DYRK1A and 19.2 nM on DYRK1B.

On to `COC(=N)c1nc2ccc3ncnc(Nc4ccc5c(c4)OCO5)c3c2s1` [Compound 7b, methyl 9-(benzo[d][1,3]dioxol-5-ylamino)thiazolo[5,4-f]quinazoline-2-carbimidate], for which the IC50 on DYRK1B was 4.2 nM.

As to `COC(=N)c1nc2ccc3ncnc(Nc4ccc5c(c4)OCCO5)c3c2s1` [Compound 7c, Methyl 9-(2,3-dihydrobenzo[b][1,4]dioxin-6-ylamino)thiazolo[5,4-f]quinazoline-2-carbimidate], the half-inhibitory concentration (IC50) on DYRK1A turned out to be 8 nM.

As to `COC(=N)c1nc2ccc3ncnc(Nc4ccc(OC)c(OC)c4)c3c2s1` [Compound 7e, Methyl 9-(3,4-dimethoxyphenylamino)thiazolo[5,4-f]quinazoline-2-carbimidate], the concentration for half-maximal inhibition (IC50) on DYRK1B turned out to be 161 nM.

For `COC(=N)c1nc2ccc3ncnc(Nc4ccc(OC)cc4OC)c3c2s1` [Compound 7f, Methyl 9-(2,4-dimethoxyphenylamino)thiazolo[5,4-f]quinazoline-2-carbimidate], the IC50 worked out at 9.53 nM at DYRK1A and 11.1 nM at DYRK1B.

As for `COC(=N)c1nc2ccc3ncnc(Nc4cc(OC)cc(OC)c4)c3c2s1` [Compound 7g, Methyl 9-(3,5-dimethoxyphenylamino)thiazolo[5,4-f]quinazoline-2-carbimidate], the IC50 on DYRK1A was 299 nM.

`COC(=N)c1nc2ccc3ncnc(Nc4ccc(OC)c([N+](=O)[O-])c4)c3c2s1` [Compound 7h, Methyl 9-(4-methoxy-3-nitrophenylamino)thiazolo[5,4-f]quinazoline-2-carbimidate]: the half-maximal inhibitory concentration (IC50) on DYRK1A turned out to be 124 nM.

On to `COC(=N)c1nc2ccc3ncnc(Nc4ccc(O)c([N+](=O)[O-])c4)c3c2s1` [Compound 7k, Methyl 9-(4-hydroxy-3-nitrophenylamino)thiazolo[5,4-f]quinazoline-2-carbimidate], for which the IC50 at DYRK1A is 4.91 nM; at DYRK1B it was 5.68 nM.

For the compound `COC(=N)c1nc2ccc3ncnc(Nc4cc(OC)c(OC)c(OC)c4)c3c2s1` [Compound 7l, Methyl 9-(3,4,5-trimethoxyphenylamino)thiazolo[5,4-f]quinazoline-2-carbimidate], the values for the half-inhibitory concentration (IC50) on DYRK1A and on DYRK1B were 436 nM and 486 nM, respectively.

Take `COC(=N)c1nc2ccc3ncnc(Nc4ccc(Cl)cc4)c3c2s1` [Compound 8a, Methyl 9-(4-chlorophenylamino)thiazolo[5,4-f]quinazoline-2-carbimidate]: the half-inhibitory concentration (IC50) amounted to 1.13 nM on DYRK1A and 4.74 nM at DYRK1B.

`COC(=N)c1nc2ccc3ncnc(Nc4cccc(Cl)c4)c3c2s1` [Compound 8b, Methyl 9-(3-chlorophenylamino)thiazolo[5,4-f]quinazoline-2-carbimidate]: the 50% inhibitory concentration (IC50) at DYRK1A was 13.6 nM; at DYRK1B, 18.8 nM.

Regarding `COC(=N)c1nc2ccc3ncnc(Nc4ccc(Cl)cc4Cl)c3c2s1` [Compound 8c, Methyl 9-(2,4-dichlorophenylamino)thiazolo[5,4-f]quinazoline-2-carbimidate], the “Activity in patient-derived ovarian cancer ascites spheroids” value in data set [1] is “promising activities”. Also, the “Toxicity in mice (Panc1 xenograft model)” value with Panc1 xenograft was “without detectable toxicity”. The “In vivo activity in Panc1 xenograft model” value with Panc1 xenograft (mice) is on record as “in vivo activities”. The IC50 was determined as 0.22 nM on DYRK1A and 0.28 nM at DYRK1B.

Turning to `COC(=N)c1nc2ccc3ncnc(Nc4ccc(Cl)c(Cl)c4)c3c2s1` [Compound 8d, Methyl 9-(3,4-dichlorophenylamino)thiazolo[5,4-f]quinazoline-2-carbimidate], the IC50 at DYRK1A is 66.8 nM.

With `COC(=N)c1nc2ccc3ncnc(Nc4ccc(F)cc4)c3c2s1` [Compound 8e, Methyl 9-(4-fluorophenylamino)thiazolo[5,4-f]quinazoline-2-carbimidate], the IC50 at DYRK1A is 6.06 nM; at DYRK1B, 9.64 nM.

In the case of `COC(=N)c1nc2ccc3ncnc(Nc4ccc(Br)cc4F)c3c2s1` [Compound 8f, Methyl 9-(4-bromo-2-fluorophenylamino)thiazolo[5,4-f]quinazoline-2-carbimidate], the IC50 on DYRK1A was 3.6 nM; on DYRK1B, 6.55 nM.

For `COC(=N)c1nc2ccc3ncnc(Nc4ccc(OC)cc4F)c3c2s1` [Compound 8i, Methyl 9-(2-fluoro-4-methoxyphenylamino)thiazolo[5,4-f]quinazoline-2-carbimidate], the “Apoptosis induction in B- and T-ALL cell lines and primary human pediatric ALL samples” value in data set [2] is reported as “dose-dependently induce apoptosis”. Further, the “Apoptosis of primary ALL cells resistant to cytarabine” value in data set [2] (cytarabine-resistant primary ALL cells) was “induced apoptosis”.

With `COC(=N)c1nc2ccc3ncnc(Nc4ccc(O)c(F)c4)c3c2s1` [Compound 8j, Methyl 9-(3-fluoro-4-hydroxyphenylamino)thiazolo[5,4-f]quinazoline-2-carbimidate], the concentration for half-maximal inhibition (IC50) came to 8.63 nM on DYRK1A and 11 nM on DYRK1B.

Take `COC(=N)c1nc2ccc3ncnc(Nc4ccc(F)cc4F)c3c2s1` [Compound 8k, Methyl 9-(2,4-difluorophenylamino)thiazolo[5,4-f]quinazoline-2-carbimidate]: the IC50 on DYRK1A worked out at 0.94 nM; on DYRK1B, 1.07 nM.

In the case of `COC(=N)c1nc2ccc3ncnc(Nc4ccc(C(F)(F)F)cc4)c3c2s1` [Compound 8l, Methyl 9-(4-(trifluoromethyl)phenylamino)thiazolo[5,4-f]quinazoline-2-carbimidate], the values for the half-maximal inhibitory concentration (IC50) on DYRK1A and at DYRK1B were 54.8 nM and 186 nM, respectively.

For `COC(=N)c1nc2ccc3ncnc(Nc4ccccc4)c3c2s1` [Compound 9a, Methyl 9-(phenylamino)thiazolo[5,4-f]quinazoline-2-carbimidate], the half-inhibitory concentration (IC50) on DYRK1A amounted to 1.81 nM; at DYRK1B, 3.48 nM.

As to `COC(=N)c1nc2ccc3ncnc(Nc4ccc(C)cc4)c3c2s1` [Compound 9b, Methyl 9-(p-tolylamino)thiazolo[5,4-f]quinazoline-2-carbimidate], the half-inhibitory concentration (IC50) was determined as 0.98 nM on DYRK1A and 2.83 nM at DYRK1B.

For the compound `COC(=N)c1nc2ccc3ncnc(Nc4ccc(C(C)(C)C)cc4)c3c2s1` [Compound 9c, Methyl 9-(4-tert-butylphenylamino)thiazolo[5,4-f]quinazoline-2-carbimidate], the half-maximal inhibitory concentration (IC50) is 39 nM at DYRK1A and 93.8 nM at DYRK1B.

For the compound `C#Cc1cccc(Nc2ncnc3ccc4nc(C(=N)OC)sc4c23)c1` [Compound 9d, Methyl 9-(3-ethynylphenylamino)thiazolo[5,4-f]quinazoline-2-carbimidate], the results for the 50% inhibitory concentration (IC50) at DYRK1A and at DYRK1B were 40.8 nM and 46.3 nM, respectively.

Regarding `COC(=N)c1nc2ccc3ncnc(Nc4ccc(C#N)cc4)c3c2s1` [Compound 9e, Methyl 9-(4-cyanophenylamino)thiazolo[5,4-f]quinazoline-2-carbimidate], the IC50 on DYRK1A was 3.89 nM; at DYRK1B, 7.69 nM.

For the compound `COC(=N)c1nc2ccc3ncnc(Nc4cccc(C#N)c4)c3c2s1` [Compound 9f, Methyl 9-(3-cyanophenylamino)thiazolo[5,4-f]quinazoline-2-carbimidate], the IC50 on DYRK1A stood at 42.7 nM; on DYRK1B, 72 nM.

In the case of `COC(=N)c1nc2ccc3ncnc(Nc4ccc(N(C)C)cc4)c3c2s1` [Compound 9h, Methyl 9-(4-(dimethylamino)phenylamino)thiazolo[5,4-f]quinazoline-2-carbimidate], the IC50 on DYRK1A was 35.6 nM; on DYRK1B it was 64.3 nM.

For `CCOC(=N)c1nc2ccc3ncnc(Nc4ccc5c(c4)OCO5)c3c2s1` [Compound 12a, Ethyl 9-(benzo[d][1,3]dioxol-5-ylamino)thiazolo[5,4-f]quinazoline-2-carbimidate], the 50% inhibitory concentration (IC50) at DYRK1A worked out at 6.02 nM; on DYRK1B it was 7.72 nM.

In the case of `CC(C)OC(=N)c1nc2ccc3ncnc(Nc4ccc5c(c4)OCO5)c3c2s1` [Compound 12b, Isopropyl 9-(benzo[d][1,3]dioxol-5-ylamino)thiazolo[5,4-f]quinazoline-2-carbimidate], the melting point lay within 224 to 226 °C. At DYRK1A, the concentration for half-maximal inhibition (IC50) came to 125 nM. Besides, at DYRK1B, the IC50 was determined as 218 nM.

In the case of `N=C(OCc1ccccc1)c1nc2ccc3ncnc(Nc4ccc5c(c4)OCO5)c3c2s1` [Compound 12c, Benzyl 9-(benzo[d][1,3]dioxol-5-ylamino)thiazolo[5,4-f]quinazoline-2-carbimidate], the IC50 came to 33.9 nM at DYRK1A and 37.3 nM at DYRK1B.

Regarding `COC(=O)c1nc2ccc3ncnc(Nc4ccc5c(c4)OCO5)c3c2s1` [Compound 13, Methyl 9-(benzo[d][1,3]dioxol-5-ylamino)thiazolo[5,4-f]quinazoline-2-carboxylate], the “Affinity for DYRK1A, result in words” value at DYRK1A (compared with parent methyl carbimidate / secondary amine analogs) is “mostly inactive”.

Consider `CC(C)(C)CNc1ncnc2ccc(-c3ccc4c(c3)OCO4)cc12` [NCGC-00189310, reference compound], for which the IC50 on DYRK1A is 2.2 nM; at DYRK1B, 20.6 nM.
